Experimental data taken from US11105799B2, “Biomarkers of therapeutic responsiveness” (Meso Scale Technologies, LLC., priority 2009, dated 2021).

Assays:
human 786-0 RCC cells [1] = assay: Multiplex immunoassay of biomarker levels in RCC xenograft tissue extracts from mice; assay type: in vivo; conditions: for AMPKa1 Total marker concentration +/- SD / AMPKa1 p174 marker concentration +/- SD / AMPKa1 p285 marker concentration +/- SD / Gsk3b Phospho marker concentration +/- SD / Gsk3b Total marker concentration +/- SD / Mek1/2 Phospho marker concentration +/- SD / Mek1/2 Total marker concentration +/- SD: 1 ug protein/well; for STAT3 Phospho marker concentration +/- SD: 2 ug protein/well; for Hif1a Total marker concentration +/- SD: 4 ug protein/well
Protocol: A panel of biomarkers was measured in RCC xenograft tissue extracts from mice. The mice were implanted with human 786-0 RCC cells and the cells were allowed to grow until a tumor of approximately 12 mm diameter was formed. The “Set A” group of mice received no drug treatment prior to removal of the xenograft tissue.
Multiplex immunoassay kits were used for detection of total and/or phosphorylated biomarkers (supplied by Meso Scale Diagnostics, LLC, Gaithersburg, Md.). Levels of each biomarker were determined by calibration of the assays with were either purified calibrator proteins or using control cell lysates from appropriately treated cultured cell lines (e.g., cells subjected to conditions known to induce or reduce levels of a specific biomarker). Calibration curves were derived by testing serial dilutions of the calibrator lysates or purified proteins. Levels of biomarkers in test samples were back-calculated from the calibration curves and were expressed in terms of wt. of protein per weight of tissue extract (for purified calibrators) or in terms of weight of crude control lysate protein per well (for lysate calibrators). Titrations of tumor extracts were carried out to determine the linearity of the assay response to sample dilution and to select the sample dilution that would be appropriate to use for each assay panel.
In general, the assay format was as follows, with minor alterations for specific assay panels as indicated in the assay protocols provided with each assay kit (supplied by Meso Scale Diagnostics, LLC): (1) block MSD MULTI-SPOT® plate for 1 hour with appropriate MSD® blocking solution and wash; (2) add 25 μl assay diluent to each well, if specified; (3) add 25 μl calibrator, or sample (diluted as appropriate) to each well; (4) incubate with shaking for 1-3 hours (time as specified) and wash the well; (5) add 25 μl labeled detection antibody solution to each well; (6) incubate with shaking for 1-2 hours (time as specified) and wash the well; (7) add 150 μl MSD read buffer to each well; (8) read plate immediately on MSD SI6000 Reader (supplied by Meso Scale Diagnostics, LLC).

human 786-0 RCC cells [2] = assay: Tumor size of human 786-0 RCC xenografts in mice treated with sorafenib; assay type: in vivo; conditions: tumor approximately 12 mm diameter at start
Protocol: A panel of biomarkers was measured in RCC xenograft tissue extracts from mice. The mice were implanted with human 786-0 RCC cells and the cells were allowed to grow until a tumor of approximately 12 mm diameter was formed. The “Set A” group of mice received no drug treatment prior to removal of the xenograft tissue. The other two groups of mice—“Set C” and “Set D”—were treated with sorafenib prior to removal of the xenograft tissue. […] The “Set D” developed resistance to the drug and the tumor size increased to 16 mm in diameter during treatment.

GSK30 = conditions: melanoma cells; cited from earlier work
tumor vasculature = conditions: xenograft studies; cited from earlier work
[3] = Tumor Group C (treated), sensitive to sorafenib, 0.5 ug total protein/well
[4] = Tumor Group C (treated), sensitive to sorafenib
[5] = Tumor Group C (treated), sensitive to sorafenib, 2.5 ug protein/well
[6] = Tumor Group D (resistant), sorafenib treated, 0.5 ug total protein/well
[7] = Tumor Group D (resistant), sorafenib treated
[8] = Tumor Group D (resistant), sorafenib treated, 2.5 ug protein/well

CNC(=O)c1cc(Oc2ccc(NC(=O)Nc3ccc(Cl)c(C(F)(F)F)c3)cc2)ccn1 [sorafenib]
Akt Phospho marker concentration +/- SD (human 786-0 RCC cells [1]; [3]): 348 +/− 85 ng calibrator lysate protein/w | Akt Total marker concentration +/- SD (human 786-0 RCC cells [1]; [3]): 142 +/− 43 ng calibrator lysate protein/w | Erk1/2 Phospho marker concentration +/- SD (human 786-0 RCC cells [1]; [3]): 102 +/− 45 ng calibrator lysate protein/w | Met Phospho marker concentration +/- SD (human 786-0 RCC cells [1]; [3]): 34 +/− 7 ng calibrator lysate protein/w | Met Total marker concentration +/- SD (human 786-0 RCC cells [1]; [3]): 850 +/− 375 ng calibrator lysate protein/w | p21 Total marker concentration +/- SD (human 786-0 RCC cells [1]; [3]): 1.1 +/− 0.3 pg/ug tumor protein | p38 Total marker concentration +/- SD (human 786-0 RCC cells [1]; [3]): 449 +/− 266 ng calibrator lysate protein/w | AMPKa1 Total marker concentration +/- SD (human 786-0 RCC cells [1]; [4]): 29 +/− 13 pg/ug tumor protein | AMPKa1 p174 marker concentration +/- SD (human 786-0 RCC cells [1]; [4]): 7.3 +/− 4.4 pg/ug tumor protein | AMPKa1 p285 marker concentration +/- SD (human 786-0 RCC cells [1]; [4]): 29 +/− 15 pg/ug tumor protein | Gsk3b Phospho marker concentration +/- SD (human 786-0 RCC cells [1]; [4]): 1188 +/− 446 ng calibrator lysate protein/w | Gsk3b Total marker concentration +/- SD (human 786-0 RCC cells [1]; [4]): 3771 +/− 1491 ng calibrator lysate protein/w | Mek1/2 Phospho marker concentration +/- SD (human 786-0 RCC cells [1]; [4]): 116 +/− 21 ng calibrator lysate protein/w | Mek1/2 Total marker concentration +/- SD (human 786-0 RCC cells [1]; [4]): 350 +/− 90 ng calibrator lysate protein/w | STAT3 Phospho marker concentration +/- SD (human 786-0 RCC cells [1]; [4]): 65 +/− 16 ng calibrator lysate protein/w | Jnk Phospho marker concentration +/- SD (human 786-0 RCC cells [1]; [5]): 74 +/− 29 ng calibrator lysate protein/w | Jnk Total marker concentration +/- SD (human 786-0 RCC cells [1]; [5]): 983 +/− 356 ng calibrator lysate protein/w | PlGF Total marker concentration +/- SD (human 786-0 RCC cells [1]; [5]): 0.083 +/− 0.031 pg/ug tumor protein | VEGFR-1 Total marker concentration +/- SD (human 786-0 RCC cells [1]; [5]): 0.26 +/− 0.08 pg/ug tumor protein | bFGF Total marker concentration +/- SD (human 786-0 RCC cells [1]; [5]): 2.1 +/− 0.6 pg/ug tumor protein | Hif1a Total marker concentration +/- SD (human 786-0 RCC cells [1]; [4]): 19 +/− 3 ng calibrator lysate protein/w | Akt Phospho marker concentration +/- SD (human 786-0 RCC cells [1]; [6]): 354 +/− 84 ng calibrator lysate protein/w | Akt Total marker concentration +/- SD (human 786-0 RCC cells [1]; [6]): 93 +/− 25 ng calibrator lysate protein/w | Erk1/2 Phospho marker concentration +/- SD (human 786-0 RCC cells [1]; [6]): 206 +/− 103 ng calibrator lysate protein/w | Erk1/2 Total marker concentration +/- SD (human 786-0 RCC cells [1]; [6]): 486 +/− 306 ng calibrator lysate protein/w | Met Phospho marker concentration +/- SD (human 786-0 RCC cells [1]; [6]): 41 +/− 6 ng calibrator lysate protein/w | Met Total marker concentration +/- SD (human 786-0 RCC cells [1]; [6]): 595 +/− 137 ng calibrator lysate protein/w | p21 Total marker concentration +/- SD (human 786-0 RCC cells [1]; [6]): 2.2 +/− 0.9 pg/ug tumor protein | p38 Total marker concentration +/- SD (human 786-0 RCC cells [1]; [6]): 428 +/− 227 ng calibrator lysate protein/w | AMPKa1 Total marker concentration +/- SD (human 786-0 RCC cells [1]; [7]): 26 +/− 10 pg/ug tumor protein | AMPKa1 p174 marker concentration +/- SD (human 786-0 RCC cells [1]; [7]): 3.8 +/− 0.9 pg/ug tumor protein | AMPKa1 p285 marker concentration +/- SD (human 786-0 RCC cells [1]; [7]): 19 +/− 5 pg/ug tumor protein | Gsk3b Phospho marker concentration +/- SD (human 786-0 RCC cells [1]; [7]): 1474 +/− 294 ng calibrator lysate protein/w | Gsk3b Total marker concentration +/- SD (human 786-0 RCC cells [1]; [7]): 3829 +/− 1058 ng calibrator lysate protein/w | Mek1/2 Phospho marker concentration +/- SD (human 786-0 RCC cells [1]; [7]): 113 +/− 24 ng calibrator lysate protein/w | Mek1/2 Total marker concentration +/- SD (human 786-0 RCC cells [1]; [7]): 359 +/− 103 ng calibrator lysate protein/w | STAT3 Phospho marker concentration +/- SD (human 786-0 RCC cells [1]; [7]): 41 +/− 10 ng calibrator lysate protein/w | Jnk Phospho marker concentration +/- SD (human 786-0 RCC cells [1]; [8]): 110 +/− 22 ng calibrator lysate protein/w | Jnk Total marker concentration +/- SD (human 786-0 RCC cells [1]; [8]): 878 +/− 231 ng calibrator lysate protein/w | PlGF Total marker concentration +/- SD (human 786-0 RCC cells [1]; [8]): 0.144 +/− 0.073 pg/ug tumor protein | VEGF Total marker concentration +/- SD (human 786-0 RCC cells [1]; [8]): 26 +/− 15 pg/ug tumor protein | VEGFR-1 Total marker concentration +/- SD (human 786-0 RCC cells [1]; [8]): 0.39 +/− 0.14 pg/ug tumor protein | bFGF Total marker concentration +/- SD (human 786-0 RCC cells [1]; [8]): 2.6 +/− 1.3 pg/ug tumor protein | Hif1a Total marker concentration +/- SD (human 786-0 RCC cells [1]; [7]): 14 +/− 3 ng calibrator lysate protein/w | tumor size (human 786-0 RCC cells [2]; Set C, sensitive): tumor size decreased | tumor size (diameter) during treatment (human 786-0 RCC cells [2]; Set D, developed resistance): 16 mm | effect on GSK3β activity (GSK30): activates GSK30 | effect on tumor vasculature (tumor vasculature): reduction in tumor vasculature
